According to patent US20090111798A1, “5,6-DIHYDRO-1H-PYRIDIN-2-ONE COMPOUNDS” (priority 2006, published 2009):

molecular target: NS5B polymerase (Hepatitis C virus genotype 1b, UniProt P26663); test: biochemical; details: NS5B polymerase inhibition; 20 nM enzyme, 75 min at 28° C.
Procedure: Compounds were tested for HCV polymerase inhibition. Assays were performed in a 96-well streptavidin-coated FlashPlate using 20 nM enzyme, 0.5μ Ci of [α-^33P]GTP, 0.6 μM GTP, and 250 nM 5′biotinylated oligo (rG13)/poly rC in 20 mM Tris-HCl, pH 7.5, 5 mM MgCl2, 5 mM dithiothreitol, 0.1 g/L bovine serum albumin, and 100 U/mL RNAse inhibitor. The reaction was stopped by aspiration after 75 min at 28° C. and the plate was washed several times. After washing and drying the plate, incorporated radioactivity was counted using a Microbeta scintillation counter. IC50 values were calculated relative to the uninhibited control and inhibition data were fitted to a 4-parameter IC50 equation.

NS5B polymerase, sequence (P26663 2420-3010): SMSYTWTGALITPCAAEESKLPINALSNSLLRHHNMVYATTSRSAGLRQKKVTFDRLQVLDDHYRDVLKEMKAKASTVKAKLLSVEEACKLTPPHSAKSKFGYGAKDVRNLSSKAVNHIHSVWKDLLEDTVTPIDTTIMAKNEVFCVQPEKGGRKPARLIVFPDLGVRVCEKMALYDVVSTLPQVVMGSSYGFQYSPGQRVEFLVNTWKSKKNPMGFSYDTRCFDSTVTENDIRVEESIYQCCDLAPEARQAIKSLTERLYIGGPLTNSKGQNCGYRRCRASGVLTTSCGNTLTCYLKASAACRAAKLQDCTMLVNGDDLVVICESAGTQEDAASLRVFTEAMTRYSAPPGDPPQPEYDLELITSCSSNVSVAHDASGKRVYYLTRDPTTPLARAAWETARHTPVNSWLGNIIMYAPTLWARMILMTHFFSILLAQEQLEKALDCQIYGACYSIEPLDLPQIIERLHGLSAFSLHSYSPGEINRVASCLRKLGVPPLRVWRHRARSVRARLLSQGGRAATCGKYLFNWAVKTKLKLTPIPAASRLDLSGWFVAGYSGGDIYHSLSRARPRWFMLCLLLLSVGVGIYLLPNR

Structure (SMILES)	IC50 [µM]
O=C1C(C2=NS(=O)(=O)c3cc(C4=CCCS4(=O)=O)ccc3N2)=C(O)[C@@H]2CCC[C@@H]2N1Cc1ccc(F)cc1 [Example 44, (4aR,7aS)-3-[7-(1,1-Dioxo-4,5-dihydro-1H-1λ^6-thiophen-2-yl)-1,1-dioxo-1,4-dihydro-1λ^6-benzo[1,2,4]thiadiazin-3-yl]-1-(4-fluoro-benzyl)-4-hydroxy-1,4a,5,6,7,7a-hexahydro-[1]pyrindin-2-one]	0.1 to 1
O=C1C(C2=NS(=O)(=O)c3cc(NS(=O)(=O)c4ccccc4)ccc3N2)=C(O)[C@@H]2CCC[C@@H]2N1Cc1ccc(F)cc1 [Example 40, (4aR,7aS)—N-{3-[1-(4-Fluoro-benzyl)-4-hydroxy-2-oxo-2,4-a,5,6,7,7a-hexahydro-1H-[1]pyrindin-3-yl]-1,1-dioxo-1,4-dihydro-1λ^6-benzo[1,2,4]thiadiazin-7-yl]-benzenesulfonamide]	0.02 to 0.1
CC(C)(C)CCN1C(=O)C(C2=NS(=O)(=O)c3cc(NS(C)(=O)=O)ccc3N2)=C(O)C2CCCCCC21 (stereo not drawn) [Example 32, N-{3-[1-(3,3-Dimethyl-butyl)-4-hydroxy-2-oxo-2,4-a,5,6,7,8,9,9a-octahydro-1H-cyclohepta[b]pyridin-3-yl]-1,1-dioxo-1,4-dihydro-1λ^6-benzo[1,2,4]thiadiazin-7-yl]-methanesulfonamide]	0.02 to 0.1
CS(=O)(=O)Nc1ccc2c(c1)S(=O)(=O)N=C(C1=C(O)[C@@H]3CCC[C@@H]3N(CCC3CC3)C1=O)N2 (relative stereo) [Example 19, cis-N-{3-[2-Cyclopropylethyl-5-hydroxy-3-oxo-2-aza-bicyclo[4.3.0]non-4-en-4-yl]-1,1-dioxo-1,4-dihydro-1λ^6-benzo[1,2,4]thiadiazin-7-yl}-methanesulfonamide]	0.02 to 0.1
CS(=O)(=O)Nc1ccc2c(c1)S(=O)(=O)C=C(C1=C(O)[C@@H]3CCC[C@@H]3N(Cc3ccc(F)cc3)C1=O)N2 (relative stereo) [Example 25, cis-N-{3-[1-(4-Fluoro-benzyl)-4-hydroxy-2-oxo-2,4-a,5,6,7,7a-hexahydro-1H-[1]pyrindin-3-yl]-1,1-dioxo-1,4-dihydro-1λ^6-benzo[1,4]thiazin-7-yl}-methanesulfonamide]	0.02 to 0.1
O=C1C(C2=NS(=O)(=O)c3cc(C4CCCS4(=O)=O)ccc3N2)=C(O)[C@@H]2CCC[C@@H]2N1Cc1ccc(F)cc1 (mixture of isomers) [Example 45, (4aR,7aS)-3-[7-(1,1-Dioxo-tetrahydro-1λ^6-thiophen-2-yl)-1,1-dioxo-1,4-dihydro-1λ^6-benzo[1,2,4]thiadiazin-3-yl]-1-(4-fluoro-benzyl)-4-hydroxy-1,4a,5,6,7,7a-hexahydro-[1]pyrindin-2-one]	0.02 to 0.1

Next, values leading:

IC50 [µM]	Structure (SMILES)
0.02 to 0.1	CS(=O)(=O)Nc1ccc2c(c1)S(=O)(=O)N=C(C1=C(O)[C@@H]3CCC[C@@H]3N(CC3CCC3)C1=O)N2 (relative stereo) [Example 47, cis-N-[3-(1-Cyclobutylmethyl-4-hydroxy-2-oxo-2,4-a,5,6,7,7a-hexahydro-1H-[1]pyrindin-3-yl)-1,1-dioxo-1,4-dihydro-1λ^6-benzo[1,2,4]thiadiazin-7-yl]-methanesulfonamide]
0.02 to 0.1	CS(=O)(=O)Nc1ccc2c(c1)S(=O)(=O)N=C(C1=C(O)C3CCCCCC3N(CCC3CC3)C1=O)N2 (mixture of isomers) [Example 58, N-{3-[1-(2-Cyclopropyl-ethyl)-4-hydroxy-2-oxo-2,4a,5,6,7,8,9,9a-octahydro-1H-cyclohepta[b]pyridin-3-yl]-1,1-dioxo-1,4-dihydro-1λ^6-benzo[1,2,4]thiadiazin-7-yl}-methanesulfonamide]
0.02 to 0.1	CS(=O)(=O)Nc1ccc2c(c1)S(=O)(=O)N=C(C1=C(O)[C@H]3CCC[C@H]3N(Cc3ccc(F)cc3)C1=O)N2 [Example 26, (4aS,7aR)—N-{3-[1-(4-Fluoro-benzyl)-4-hydroxy-2-oxo-2,4-a,5,6,7,7a-hexahydro-1H-[1]pyrindin-3-yl]-1,1-dioxo-1,4-dihydro-1λ^6-benzo[1,2,4]thiadiazin-7-yl}-methanesulfonamide]
